≈ marks a conversion by molar mass, not a printed value. Entries after “also recorded” stand apart in the source; their conditions may differ. Where two headings read alike, the source gives them in different places.

Series [1] has as its system Human lung adenocarcinoma cell A549. Nature of the series: In-vitro inhibition of tumor cell proliferation (3H-TdR, 72 h), normal oxygen and hypoxic. In kind it is cell-based. As to conditions: A549, 72 h. As to the method:
(§1) Take tumor cells in the logarithmic growth phase, add 0.25% pancreatin for digestion for 3 min, use RPMI-1640 containing 10% calf serum for suspension culture of the cells, count the number, adjust cell concentration to 1×10^5 cells/mL, inoculate to a Top-count dedicated 96-well cell culture plate at 100 μL/well, and incubate at 37° C. and 5% CO2 for 24 h; divide the cells into experimental groups and control groups, and add a target compound solution (0.001 μg/mL, 0.01 μg/mL, 0.1 μg/mL, 1 μg/mL, 10 μg/mL) to the experimental groups, wherein each concentration corresponded to four wells, and the volume of each well was made up to 200 μL; after adding samples, continue to culture for 72 h for each group (for hypoxic groups, continue to culture for 72 h at 5% CO2, 95% N2), add ^3H-TdR 3×10^5Bq to each group before culture ended, and measure the CPM (count per minute) value of each well with Top-count; and calculate the median inhibition concentration (IC50) of drugs in each experimental group on cell proliferation.

Series [2] has as its system Human liver cancer HepG2 cell. The series is described as above. In kind it is cell-based. As to conditions: HepG2, 72 h. As to the method: as §1
Series [3] concerns Human pancreatic adenocarcinoma cell BxPC-3 cell. The description is as above. In kind it is cell-based. As to conditions: Homo sapiens, BxPC-3, 72 h.
Series [4] relates to subcutaneous transplantation tumor of human BxPC-3. Nature of the series: Growth inhibition of subcutaneous transplantation tumor of human BxPC-3 in nude mice, with animal weight. In kind it is in vivo. The conditions noted are these: high-dose group, 4 times of the effective dose (0.4 mmol/kg); FIG. 3. As to the method:
Take BxPC-3 human pancreatic cancer cells in the logarithmic growth phase, inoculate subcutaneously on the back of nude mice at a concentration of 5×10^6 cells·0.2 mL^−1·mouse^−1, three weeks later, after the long diameters of the transplanted tumors in nude mice were all ≥5 mm, calculate the similar volume of tumor bodies based on the long diameter and short diameter of the transplanted tumors. Nude mice were divided into 5 groups by a random block design and allocation method according to the tumor volume.
Administration scheme: 50 model animals were randomly divided into a negative control group, a low-dose group (compound 001, 0.1 mmol/kg), a high-dose group (compound 001, 0.4 mmol/kg), a gemcitabine hydrochloride group (0.2 mmol/kg), and a combined administration group (compound 001, 0.1 mmol/kg+ gemcitabine hydrochloride, 0.1 mmol/kg), intraperitoneally injected (twice per week) for 3 weeks, and killed one week after drug withdrawal. At the same time, animal weight was measured and the eye condition of the animal was observed.

The mark [5] stands for this setting: hypoxic (5% CO2, 95% N2), read-out: Median inhibition concentration IC50 hypoxic (nitrogen).
Where [6] appears, read: normal oxygen (air), read-out: Median inhibition concentration IC50 normal oxygen (air).

Regarding `CC(OC(=O)[C@H](C)NP(=O)(OC[C@H]1O[C@@H](n2ccc(N)nc2=O)C(F)(F)C1O)Oc1ccccc1)c1ccc([N+](=O)[O-])cc1` (stereo partly shown) [Compound 001], the IC50 in series [1] (setting [5]) was 0.05 µg/mL (≈ 0.0782 µM); in series [1] (setting [6]) it was 1 µg/mL (≈ 1.56 µM); in series [2] (setting [5]), 0.3 µg/mL (≈ 0.469 µM); in series [2] (setting [6]), over 10 µg/mL; in series [3] (setting [5]), 0.2 µg/mL (≈ 0.313 µM); in series [3] (setting [6]), over 10 µg/mL. For the same compound, in series [4], the Animal weight result is “no significant difference in animal weight; also recorded: not significantly different from that of the low-dose group and a positive control drug gemcitabine group”.

For the origin of these results see patent publication US10709725B2, “Gemcitabine ProTide hypoxia-activated prodrug and application thereof” (JIANGSU QIANZHIKANG BIOLOGICAL MEDICINE SCIENCE AND …, priority 2016, dated 2020).
